Assay results published in patent publication US20070015823A1, “Ambruticin VS compounds” (priority 2004, published 2007).

Tests used:
[1] = tested on: A. flavus ATCC 204304; assay: Broth microdilution antifungal susceptibility, NCCLS M38-A; format: cell-based, Aspergillus flavus; settings: minimal concentration inhibiting >95% growth; average of at least two assays (except I-l and I-x)
[2] = tested on: A. fumigatus ATCC 204305; assay: as above; format: cell-based, Aspergillus fumigatus; settings: minimal concentration inhibiting >95% growth; average of at least two assays (except I-l and I-x)

| Compound | MIC0 A. flavus ATCC 204304 [1] | MIC0 A. fumigatus ATCC 204305 [2] |
| --- | --- | --- |
| CC[C@H]1O[C@@H](/C(C)=C/[C@H](C)/C=C/[C@H]2[C@@H](C)[C@@H]2/C=C/[C@@H]2O[C@H](CC(=O)O)C[C@H](N(C)C(=O)OC)[C@H]2O)CC=C1C [I-o] | 32 µg/mL | 16 µg/mL |
| CC[C@H]1O[C@@H](/C(C)=C/[C@H](C)/C=C/[C@H]2[C@@H](C)[C@@H]2/C=C/[C@@H]2O[C@H](CCO)C[C@H](N(C)C)[C@H]2O)CCC1C (stereo partly drawn) [IV-c] | 2 µg/mL | 2 µg/mL |
| CC[C@H]1O[C@@H](/C(C)=C/[C@H](C)/C=C/[C@H]2[C@@H](C)[C@@H]2/C=C/[C@@H]2O[C@H](CC=NO)C[C@H](NC)[C@H]2O)CC=C1C [I-zz, (5S,6R)-5-methylamino-6-hydroxypolyangial oxime] | 8 µg/mL | 12 µg/mL |
| CC[C@H]1O[C@@H](/C(C)=C/[C@H](C)/C=C/[C@H]2[C@@H](C)[C@@H]2/C=C/[C@@H]2O[C@H](CC(=O)O)C[C@H](N(C)Cc3nccs3)[C@H]2O)CC=C1C [I-x, (5S,6R)-5-(N-(2-thiazolyl)methyl-methylamino)-6-hydroxypolyangioic acid] | 4 µg/mL | 2 µg/mL |
| CC[C@H]1O[C@@H](/C(C)=C/[C@H](C)/C=C/[C@H]2[C@@H](C)[C@@H]2/C=C/[C@@H]2O[C@H](CC(=O)OC)C[C@H](N(C)C(=O)OCC(C)C)[C@H]2O)CC=C1C [I-gg] | >32 µg/mL | >32 µg/mL |
| CC[C@H]1O[C@@H](/C(C)=C/[C@H](C)/C=C/[C@H]2[C@@H](C)[C@@H]2/C=C/[C@@H]2O[C@H](CC(=O)O)C[C@H](NC(C)C)[C@H]2O)CCC1C (stereo partly drawn) [IV-d] | 0.88 µg/mL | 2.5 µg/mL |
| CC[C@H]1O[C@@H](/C(C)=C/[C@H](C)/C=C/[C@H]2[C@@H](C)[C@@H]2/C=C/[C@@H]2O[C@H](CC(=O)O)C[C@H](NC(=O)C(F)(F)F)[C@H]2O)CC=C1C [I-fff, (5S,6R)-5-trifluroacetamido-6-hydroxypolyangioic acid] | 2 µg/mL | 3 µg/mL |
| CC[C@H]1O[C@@H](/C(C)=C/[C@H](C)/C=C/[C@H]2[C@@H](C)[C@@H]2/C=C/[C@@H]2O[C@H](CC(=O)O)C[C@H](NC(=O)OC)[C@H]2O)CC=C1C [I-bb, (5S,6R)-5-methoxycarbonylamino-6-hydroxypolyangioic acid] | 32 µg/mL | 16 µg/mL |
| CC[C@H]1O[C@@H](/C(C)=C/[C@H](C)/C=C/[C@H]2[C@@H](C)[C@@H]2/C=C/[C@@H]2O[C@H](CC(=O)O)C[C@H](N(C)C(=O)NCc3ccccc3)[C@H]2O)CC=C1C [I-p, (5S,6R)-5-(3-benzyl-1-methylureido)-6-hydroxypolyangioic acid] | 32 µg/mL | 32 µg/mL |
| CC1=CC[C@H](/C(C)=C/[C@H](C)/C=C/[C@H]2[C@@H](C)[C@@H]2/C=C/[C@@H]2O[C@H](CC(=O)O)C[C@H](N(C)C)[C@H]2O)O[C@@H]1C [III-a, 24-norambruticin VS-3] | 1.6 µg/mL | 0.71 µg/mL |
| methyl (5S,6R,16R,17R)-5-tert-butoxycarbonylamino-6-hydroxy-16,17-epxoy-16,17-dihydropolyangiate [V-a] | >32 µg/mL | >32 µg/mL |
| CC[C@H]1O[C@@H](/C(C)=C/C/C=C/[C@H]2[C@@H](C)[C@@H]2/C=C/[C@@H]2O[C@H](CCO)C[C@H](N(C)C)[C@H]2O)CC=C1C [II-b, (5S,6R)-5-dimethylamino-15-desmethylpolyangi-1,6-diol] | 8 µg/mL | 8 µg/mL |
| CC[C@H]1O[C@@H](/C(C)=C/[C@H](C)/C=C/[C@H]2[C@@H](C)[C@@H]2/C=C/[C@@H]2O[C@H](CC(=O)O)C[C@H](N(C)C(=O)OCC(C)C)[C@H]2O)CC=C1C [I-r, (5S,6R)-5-[N-methyl(isobutoxycarbonylamino)]-6-hydroxypolyangioic acid] | >32 µg/mL | >32 µg/mL |
| CC[C@H]1O[C@@H](/C(C)=C/[C@H](C)/C=C/[C@H]2[C@@H](C)[C@@H]2/C=C/[C@@H]2O[C@H](CC(=O)O)C[C@H](N)[C@H]2O)CC=C1C [Ambruticin VS-5, (5S,6R)-5-amino-6-hydroxypolyangioic acid, reference compound] | 1.09 µg/mL | 1.64 µg/mL |
| CCC(=O)N(C)[C@H]1C[C@@H](CC(=O)O)O[C@@H](/C=C/[C@H]2[C@H](C)[C@@H]2/C=C/[C@@H](C)/C=C(\C)[C@H]2CC=C(C)[C@@H](CC)O2)[C@@H]1O [I-m, (5S,6R)-5-[N-methyl(propionamido)]-6-hydroxypolyangioic acid] | >32 µg/mL | >32 µg/mL |
| methyl (5S,6R,16S,17S)-5-tert-butoxycarbonylamino-6-hydroxy-16,17-epxoy-16,17-dihydropolyangiate [V-b] | >32 µg/mL | >32 µg/mL |
| (5S,6R,16R,17R)-5-amino-6-hydroxy-16,17-epxoy-16,17-dihydropolyangioic acid [V-c] | 16 µg/mL | 8 µg/mL |
| CC[C@H]1O[C@@H](/C(C)=C/[C@H](C)/C=C/[C@H]2[C@@H](C)[C@@H]2/C=C/[C@@H]2O[C@H](CC(=O)NCC(=O)OC)C[C@H](N(C)C)[C@H]2O)CC=C1C [I-ss, (5S,6R)-5-dimethylamino-6-hydroxy-N-(methoxycarbonylmethyl)polyangiamide] | 8 µg/mL | 4 µg/mL |
| CC[C@H]1O[C@@H](/C(C)=C/[C@H](C)/C=C/[C@H]2[C@@H](C)[C@@H]2/C=C/[C@@H]2O[C@H](CC(=O)O)C[C@H](N(CC3CC3)CC3CC3)[C@H]2O)CC=C1C [I-e, (5S,6R)-5-[di(cyclopropylmethyl)amino]-6-hydroxypolyangioic acid] | 3.33 µg/mL | 4.0 µg/mL |
| CC[C@H]1O[C@@H](/C(C)=C/[C@H](C)/C=C/[C@H]2[C@@H](C)[C@@H]2/C=C/[C@@H]2O[C@H](CC(=O)O)C[C@H](NCC(F)F)[C@H]2O)CC=C1C [I-ggg, (5S,6R)-5-(2,2-difluoroethyl)amino-6-hydroxypolyangioic acid] | 8 µg/mL | 4 µg/mL |
| 20,21-dihydro ambruticin VS4 [IV-e] | 1 µg/mL | 2.5 µg/mL |
| CC[C@H]1O[C@@H](/C(C)=C/[C@H](C)/C=C/[C@H]2[C@@H](C)[C@@H]2/C=C/[C@@H]2O[C@H](CC(=O)O)C[C@H](N(C)Cc3ccc4ccccc4c3)[C@H]2O)CC=C1C [I-f, (5S,6R)-5-(N-(2-naphthyl)methyl-methylamino)-6-hydroxypolyangioic acid] | 4.67 µg/mL | 8.0 µg/mL |
| CC[C@H]1O[C@@H](/C(C)=C/[C@H](C)/C=C/[C@H]2[C@@H](C)[C@@H]2/C=C/[C@@H]2O[C@H](CC(=O)O)C[C@H](NC(=O)NCc3ccccc3)[C@H]2O)CC=C1C [I-s, (5S,6R)-5-(3-benzylureido)-6-hydroxypolyangioic acid] | 32 µg/mL | 16 µg/mL |
| CC[C@H]1O[C@@H](/C(C)=C/[C@H](C)/C=C/[C@H]2[C@@H](C)[C@@H]2/C=C/[C@@H]2O[C@H](CC(=O)O)C[C@H](N(C)C(=O)NCc3ccccc3)[C@H]2OC(=O)NCc2ccccc2)CC=C1C [I-dd, (5S,6R)-5-(3-benzyl-1-methylureido)-6-(benzylcarbamoyl)polyangioic acid] | >32 µg/mL | >32 µg/mL |
| CC[C@H]1O[C@@H](/C(C)=C/[C@H](C)/C=C/[C@H]2[C@@H](C)[C@@H]2/C=C/[C@@H]2O[C@H](CCO)C[C@H](NCC(F)(F)F)[C@H]2O)CC=C1C [I-iii, (5S,6R)-5-(2,2,2-trifluroethyl)aminopolyangi-1,6-diol] | 16 µg/mL | 16 µg/mL |
| CC[C@H]1O[C@@H](/C(C)=C/[C@H](C)/C=C/[C@H]2[C@@H](C)[C@@H]2/C=C/[C@@H]2O[C@H](CC(=O)O)C[C@H](NC(C)=O)[C@H]2O)CC=C1C [I-j, (5S,6R)-5-acetamido-6-hydroxypolyangioic acid] | >32 µg/mL | 32 µg/mL |
| CC[C@H]1O[C@@H](/C(C)=C/[C@H](C)/C=C/[C@H]2[C@@H](C)[C@@H]2/C=C/[C@@H]2O[C@H](CC(=O)OC)C[C@H](N(C)C(C)=O)[C@H]2O)CC=C1C [I-k, methyl (5S,6R)-5-[N-methyl(acetamido)]-6-hydroxypolyangioate] | >32 µg/mL | >32 µg/mL |
| CC[C@H]1O[C@@H](/C(C)=C/[C@H](C)/C=C/[C@H]2[C@@H](C)[C@@H]2/C=C/[C@@H]2O[C@H](CC(=O)N(C)OC)C[C@H](N(C)C)[C@H]2O)CC=C1C [I-tt, (5S,6R)-5-dimethylamino-6-hydroxy-N-methoxy-N-methylpolyangiamide] | 4 µg/mL | 8 µg/mL |
| C=CCNC(=O)O[C@H]1[C@H](/C=C/[C@H]2[C@H](C)[C@@H]2/C=C/[C@@H](C)/C=C(\C)[C@H]2CC=C(C)[C@@H](CC)O2)O[C@H](CC(=O)O)C[C@@H]1N(C)C(=O)NCC=C [I-cc, (5S,6R)-5-(3-allyl-1-methylureido)-6-(allylcarbamoyl)polyangioic acid] | >32 µg/mL | >32 µg/mL |
| CC[C@H]1O[C@@H](/C(C)=C/[C@H](C)/C=C/[C@H]2[C@@H](C)[C@@H]2/C=C/[C@@H]2O[C@H](CCO)C[C@H](NCC(F)F)[C@H]2O)CC=C1C [I-jjj, (5S,6R)-5-(2,2-difluroethyl)aminopolyangi-1,6-diol] | 8 µg/mL | 8 µg/mL |
